Data on 21 compounds can be found in patent publication US8501771B2, “Aminoalcohol-substituted aryldihydroisoquinolinones, process for their preparation and their use as medicaments” (Sanofi, priority 2006, dated 2013).

The target in this experiment is T1, human MCH receptor (Homo sapiens, UniProt Q99705).
T1 construct: expressed in transfected cells
T1 sequence (Q99705 whole entry): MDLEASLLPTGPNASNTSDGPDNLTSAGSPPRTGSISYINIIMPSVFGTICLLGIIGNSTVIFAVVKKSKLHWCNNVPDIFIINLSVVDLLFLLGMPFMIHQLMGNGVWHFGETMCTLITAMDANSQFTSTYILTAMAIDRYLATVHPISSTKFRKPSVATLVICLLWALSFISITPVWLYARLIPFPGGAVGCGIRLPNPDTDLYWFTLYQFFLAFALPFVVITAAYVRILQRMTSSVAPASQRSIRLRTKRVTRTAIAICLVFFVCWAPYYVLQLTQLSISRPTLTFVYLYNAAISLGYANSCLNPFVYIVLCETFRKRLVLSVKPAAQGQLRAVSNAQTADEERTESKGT
Kind of experiment: Functional IC50 of MCH1R antagonists: cellular calcium flux (FLIPR) after addition of agonist MCH. The format is cell-based. As to conditions: recombinant HEK293 cell line expressing the human MCH receptor. From the text:
Influence on the MCH receptor in vitro; determination of functional IC50 values of MCH1R antagonists
Cloning of the cDNA for the human MCH receptor, preparation of a recombinant HEK293 cell line which expresses the human MCH receptor, and functional measurements with the recombinant cell line took place in analogy to the description by Audinot et al. (J. Biol. Chem. 276, 13554-13562, 2001). A difference from the reference was, however, the use of the plasmid pEAK8 from EDGE Biosystems (USA) for the construction of the expression vector. The host used for the transfection was a transformed HEK cell line named “PEAK Stable Cells” (likewise from EDGE Biosystems). Functional measurements of the cellular calcium flux after addition of agonist (MCH) in the presence of ligand of the invention took place with the aid of the FLIPR apparatus from Molecular Devices (USA), using protocols of the apparatus manufacturer. The compounds of the invention show a significant inhibition (>30%) of the signal induced by the agonist at a concentration of 100 μM, preferably at 10 μM, particularly preferably at 1 μM, very particularly preferably at 100 nM and even more particularly preferably at 10 nM.
Table 8 summarizes the results which were obtained by the above described calcium […] assay.
Turning to `CN1[C@@H]2CC[C@H]1C[C@@H](Oc1ccc(-n3ccc4cc(OC[C@@H]5CCCO5)ccc4c3=O)cc1)C2` [Example 56, 2-[4-((1R,3R,5S)-8-Methyl-8-azabicyclo[3.2.1]oct-3-yloxy)phenyl]-6-[(S)-1-(tetrahydrofuran-2-yl)methoxy]-2H-isoquinolin-1-one], the IC50 turned out to be 160 nM.
Consider `CN1[C@@H]2CC[C@H]1C[C@@H](Oc1ccc(N3CCc4cc(C#CC(C)(C)O)ccc4C3=O)cc1Cl)C2` [Example 45], for which the IC50 was 1110 nM.
Take `COc1cc(-n2ccc3cc(OC[C@@H]4CCCO4)ccc3c2=O)ccc1OCCN1CC2CCC2C1` (stereo partly drawn) [Example 83, 2-{4-[2-(3-Azabicyclo[3.2.0]hept-3-yl)ethoxy]-3-methoxyphenyl}-6-[(S)-1-(tetrahydrofuran-2-yl)methoxy]-2H-isoquinolin-1-one]: the IC50 is 840 nM.
On to `CCCCOc1ccc2c(c1)CCN(c1ccc(OC[C@@H]3CCCN4CCCC[C@H]34)cc1)C2=O` [Example 9], for which the IC50 amounted to 870 nM.
To `CN1[C@@H]2CC[C@H]1C[C@@H](Oc1ccc(N3CCc4cc(OC5CSC5)ccc4C3=O)cc1Cl)C2` [Example 26, 2-[3-Chloro-4-((1R,3R,5S)-8-methyl-8-azabicyclo[3.2.1]oct-3-yloxy)phenyl]-6-(thietan-3-yloxy)-3,4-dihydro-2H-isoquinolin-1-one] belongs 14800 nM.
As to `CCCCOc1ccc2c(c1)CCN(c1ccc(O[C@H]3C[C@H]4CC[C@@H](C3)N4CCCF)cc1)C2=O` [Example 89, 6-Butoxy-2-{4-[(1R,3R,5S)-8-(3-fluoropropyl)-8-azabicyclo[3.2.1]oct-3-yloxy]phenyl}-3,4-dihydro-2H-isoquinolin-1-one], the IC50 was determined as 4390 nM.
`CCCCOc1ccc2c(c1)CCN(c1ccc(OCCN3CCCC3)c(OC)c1)C2=O` [Example 6]: the IC50 worked out at 270 nM.
To `Cc1cc(-n2ccc3cc(OC[C@H]4CCCO4)ccc3c2=O)ccc1O[C@H]1C[C@H]2CC[C@@H](C1)N2Cc1ncc[nH]1` [Example 81] belongs 460 nM; to `COc1cc(-n2ccc3cc(OC[C@@H]4CCCO4)ccc3c2=O)ccc1OCCN1C2CCC1CC2` [Example 86], 210 nM; to `CN1[C@@H]2CC[C@H]1C[C@@H](Oc1ccc(N3CCc4cc(OCC5CCC5)ccc4C3=O)cc1Cl)C2` [Example 17], 1140 nM.
For the compound `COc1cc(-n2ccc3cc(OC[C@H]4CCCO4)ccc3c2=O)ccc1OC1CN2CCC1CC2` (stereo partly drawn) [Example 69], the half-maximal inhibitory concentration (IC50) turned out to be 1180 nM.
In the case of `COCCOc1ccc2c(c1)CCN(c1ccc(OCCN3CCCC3)c(OC)c1)C2=O` [Example 15] it was 5440 nM; in that of `COc1cc(-n2ccc3cc(OC[C@@H]4CCCO4)ccc3c2=O)ccc1OCCN1CC2CCCCC2C1` (stereo partly drawn) [Example 84], 250 nM.
In the case of `COCCN1[C@@H]2CC[C@H]1C[C@@H](Oc1ccc(-n3ccc4cc(OC[C@H]5CCCO5)ccc4c3=O)cc1C)C2` [Example 74] it was 140 nM; in that of `O=c1c2ccc(OC[C@H]3CCCO3)cc2ccn1-c1ccc(O[C@H]2C[C@H]3CC[C@@H](C2)N3C2CC2)c(F)c1` [Example 75], 5010 nM; in that of `Cc1cc(-n2ccc3cc(OC[C@H]4CCCO4)ccc3c2=O)ccc1O[C@H]1C[C@H]2CC[C@@H](C1)N2CC(C)(C)O` [Example 72], 490 nM.
For `CCCCOc1ccc2c(c1)CCN(c1ccc(O[C@H]3C[C@H]4CC[C@@H](C3)N4C)c(Cl)c1)C2=O` [Example 1, 6-Butoxy-2-[3-chloro-4-((1R,3R,5S)-8-methyl-8-azabicyclo[3.2.1]oct-3-yloxy)-phenyl]-3,4-dihydro-2H-isoquinolin-1-one], the IC50 amounted to 930 nM.
Turning to `Cc1ccc(-c2cc3c(s2)C(=O)N(c2ccc(OCCN(C)C)cc2)CC3)cc1` [Example 55, 6-[4-(2-Dimethylaminoethoxy)phenyl]-2-p-tolyl-5,6-dihydro-4H-thieno[2,3-c]pyridin-7-one], the 50% inhibitory concentration (IC50) was 4900 nM.
`COc1cc(-n2ccc3cc(OC[C@@H]4CCCO4)ccc3c2=O)ccc1OCCN1CCCC1` [Example 65]: the half-maximal inhibitory concentration (IC50) was 130 nM.
In the case of `CCC(O)C#Cc1ccc2c(c1)CCN(c1ccc(O[C@H]3C[C@H]4CC[C@@H](C3)N4C)c(Cl)c1)C2=O` (stereo partly drawn) [Example 42] it was 780 nM; in that of `CN1[C@@H]2CC[C@H]1C[C@@H](Oc1ccc(N3CCc4cc(C#CC5(O)CCCC5)ccc4C3=O)cc1Cl)C2` [Example 34], 1150 nM.
